Assay results reported in paper PMC9822280, “A Rapid and Sensitive Liquid Chromatography-Tandem Mass Spectrometry Bioanalytical Method for the Quantification of Encorafenib and Binimetinib as a First-Line Treatment for Advanced (Unresectable or Metastatic) Melanoma—Application to a Pharmacokinetic Study” (Molecules, 2022).
Like-named read-outs stand apart in the source and are kept apart here.

Tests used:
[1] = Pharmacokinetic study in rats after oral administration of binimetinib and encorafenib; type: in vivo; conditions: male, Wistar, rat plasma, oral 3.8 mg/kg binimetinib and 20 mg/kg encorafenib, fasting; for AUC(0-t) / AUC(0-inf) / Cmax / MRT inf / half-life: mean ± SD; for AUC(0-t): read-out: AUC0-t (area under the curve up to the last sampling time); for AUC(0-inf): read-out: AUC0-∞ (area under the curve extrapolated to infinity); for Cmax: read-out: Cmax (maximum plasma concentration); for MRT inf: read-out: MRT0-∞ (mean residence time); for half-life: read-out: t1/2kel (half-life in elimination phase) (converted); for Tmax: read-out: Tmax (time taken to reach the maximum plasma concentration)
Procedure: The newly developed and validated LC-MS/MS assay was effectively applied to evaluate BNB and ENF in rat plasma for a pharmacokinetic study after oral administration of 3.8 mg/kg BNB and 20 mg/kg ENF for four healthy male Wistar rats under fasting conditions. […] The values acquired in the current investigation for BNB for t1/2kel and Cl/F parameters are consistent with in vivo BNB PK studies. Furthermore, the Tmax parameter for BNB is similar to that represented in a recently published paper.
Four healthy male Wistar rats (220–250 g) were brought from the Animal Care Center of King Saud University (Saudia Arabia). All experimental procedures were reviewed in accordance with the guidelines of King Saud University Institutional Research Ethics Committee (REC) with an ethics reference number (SE-19–109). Rats were acclimatized for 7 days to laboratory environments before the experiment was directed. Diet was prohibited for 12 h before the experiment, but the water was freely available. The dose of drugs was determined according to the body surface area employing the below-mentioned formula [22]. Human dose (mg/kg) = Animal dose (mg/kg) × animal Km/Human Km
Km is a factor used in dose conversion. It is a ratio of average body weight (kg) and body surface area (m^2). Km values for the rat and human are 6 and 37, respectively. Human dose for BNB and ENF was considered as 90 and 450 mg, respectively.
Blood samples (300 μL) were collected into heparinized 1.5 mL polythene tubes containing ethylenediamine tetraacetic acid dipotassium (EDTA K2) (anticoagulant) before drug administration and at 0.15, 0.5, 1, 2, 4, 6, 8, 12, 18, and 24 h after oral administration of binimetinib (3.8 mg/kg) and encorafenib (20 mg/kg). In the current study, both drugs were dissolved in 1% DMSO/saline. The samples were directly centrifuged at 3500 rpm for 10 min at 4 °C. The plasma obtained was stored at −80 °C until analysis. The same method of extraction described under calibration standards preparation (2.4.) was used for sample preparation. The PK parameters of BNB and ENF such as Cmax, Tmax, t1/2kel, AUC0–24, and AUC0–∞ were calculated by fitting the data to a non-compartmental analysis (NCA) model with PK Solver Add-In software.

[2] = Stability of binimetinib and encorafenib in rat plasma under different storage conditions; type: in vitro ADME; conditions: for recovery at 24 h, 2400 ng/mL / recovery at 2400 ng/mL / recovery at 30 days, 2400 ng/mL: HQC 2400 ng/mL; for recovery at 2400 ng/mL / recovery at 1.5 ng/mL / recovery at 1800 ng/mL: n 3, read-out: Freeze and Thaw Stability at −80 °C (3 Cycles), Recovery (%); for recovery at 30 days, 2400 ng/mL / recovery at 30 days, 1.5 ng/mL / recovery at 30 days, 1800 ng/mL: n 3, read-out: Long Term Stability at −80 °C (30 Days), Recovery (%); for recovery at 24 h, 1.5 ng/mL / recovery at 1.5 ng/mL / recovery at 30 days, 1.5 ng/mL: LQC 1.5 ng/mL; for recovery at 24 h, 1800 ng/mL / recovery at 1800 ng/mL / recovery at 30 days, 1800 ng/mL: MQC 1800 ng/mL
Procedure: An important process of bioanalytical method validation is stability assessment. Stability of BNB and ENF was studied throughout the analysis of three QC samples (LQC, MQC and HQC) of each drug after the application of the different storage conditions. The different parameters investigated include short-term stability at room temperature for 24 h, autosampler stability at 10 °C for 24 h, three freeze and thaw cycles after storing at −80 °C, and long-term stability at −80 °C for 30 days. The results of stability experiments were satisfactory and complied with the accuracy criteria of ±15% of its theoretical concentration.
The stability of ENF and BNB was assessed after exposing the QC samples at LQC, MQC, and HQC to different storage conditions (temperature and time). The applied conditions include short-term stability at room temperature for 24 h in an autosampler for 24 h at 10 °C. Long-term stability was assessed after storing QCs for 30 days at −80 °C. Freeze and thaw stability were evaluated after three freezing and thawing cycles and compared with freshly prepared QCs. Moreover, the stock solution stability for ENF and BNB and IS was studied at a temperature of 5 ± 2 °C. All sample accuracies should be ± 15% to be considered stable.

[3] = n 3, read-out: Autosampler Stability at 10 °C (24 h), Recovery (%)
[4] = n 3, read-out: Short Term Stability at Room Temperature (24 h), Recovery (%)

SMILES | AUC(0-t) [1] [µg·h/mL] | AUC(0-inf) [1] [µg·h/mL] | Cmax [1] [µg/mL] | MRT inf [1] [h] | half-life [1] [h] | Tmax [1] [h] | recovery at 24 h, 2400 ng/mL [2, 3] [%] | recovery at 2400 ng/mL [2] [%] | recovery at 30 days, 2400 ng/mL [2] [%] | recovery at 24 h, 2400 ng/mL [2, 4] [%] | recovery at 24 h, 1.5 ng/mL [2, 3] [%] | recovery at 1.5 ng/mL [2] [%] | recovery at 30 days, 1.5 ng/mL [2] [%] | recovery at 24 h, 1.5 ng/mL [2, 4] [%] | recovery at 24 h, 1800 ng/mL [2, 3] [%] | recovery at 1800 ng/mL [2] [%] | recovery at 30 days, 1800 ng/mL [2] [%] | recovery at 24 h, 1800 ng/mL [2, 4] [%]
Cn1cnc2c(F)c(Nc3ccc(Br)cc3F)c(C(=O)NOCCO)cc21 [Binimetinib, binimetinib] | 12.3 ± 1.86 | 18.2 ± 1.31 | 3.43 ± 0.46 | 4.5 ± 0.28 | 3.39 ± 0.43 | 1 | 95.4 | 95.2 | 94.8 | 93.4 | 97.3 | 104 | 95.5 | 96.2 | 104 | 104 | 104 | 103
COC(=O)N[C@@H](C)CNc1nccc(-c2cn(C(C)C)nc2-c2cc(Cl)cc(NS(C)(=O)=O)c2F)n1 [Encorafenib, encorafenib] | 30.3 ± 3.01 | 36.5 ± 3.92 | 16.4 ± 1.47 | 3.23 ± 0.4 | 2.48 ± 0.24 | 1 | 92.4 | 96.5 | 94.6 | 94.5 | 96.6 | 99.5 | 97.5 | 95.2 | 99.8 | 96.8 | 102 | 103
